# Literature values as cited in patent US20050070524A1, “Compositions of a cyclooxygenase-2 selective inhibitor and an anticonvulsant agent for the treatment of central nervous system disorders” (Pharmacia Corporation, priority 2003, published 2005).
# Tests used:
# [1] = test system: high-voltage-activated Ca^2+ currents; conditions: rat cortical neurons
# [2] = test system: high-voltage-activated Ca^2+ channels; conditions: isolated CA1 hippocampal neurons of rats
SMILES,inhibition of high-voltage-activated Ca^2+ currents [1],inhibition of high-voltage-activated Ca^2+ channels [2]
Nc1nnc(-c2cccc(Cl)c2Cl)c(N)n1 [lamotrigine],large dose-dependent inhibition,–
CC[C@@H](C(N)=O)N1CCCC1=O [levetiracetam],–,directly and irreversibly inhibited
